# Measured values published in patent US20120207862A1, “ORAL INHIBITORS OF AGE-RELATED NADH OXIDASE (arNOX), COMPOSITIONS AND NATURAL SOURCES” (priority 2010, published 2012).
# Several values for one entry are separate records, joined by “and”; a condition that tells them apart may be missing. Identical values can stand only once. Entries after “also recorded” stand apart in the source; their conditions may differ. Like-named read-outs stand apart in the source and are kept apart here.
# Key:
# [1] = system: arNOX; assay: arNOX inhibition assay (superoxide-dependent reduction of ferric cytochrome c); format: biochemical, human
# Procedure: Reduction of ferric cytochrome c by superoxide was employed as a standard measure of superoxide formation (Mayo, L. A. and Curnutte, J., 1990, Meth. Enzyme. 186:567-575; Butler, J. et al., 1982, J. Biol. Chem. 257:10747-10750). This is a widely accepted method when coupled to superoxide dismutase inhibition for the measurement of superoxide generation. The assay consists of 150 μl buffy coats in PBSG buffer (8.06 g NaCl, 0.2 g KCl, 0.18 g Na2HPO4, 0.13 g CaCl2, 0.1. g MgCl2, 1.35 g glucose dissolved in 1000 ml deionized water, adjusted to pH 7.4, filtered and stored at 4° C.). Rates were determined using an SLM Aminco DW-2000 spectrophotometer (Milton Roy, Rochester, N.Y., USA) in the dual wave length mode of operation with continuous measurements over 1 min every 1.5 min. After 45 min, test compounds were added and the reaction was continued for an additional 45 min. After 45 min, a millimolar extinction coefficient of 19.1 cm^−1 was used for reduced ferricytochrome c. Extracts were made of the potentially inhibitory compounds in water unless otherwise indicated.
# Infusions are prepared by adding 125 mg material (for herbs or spices, dry weight) to 1 ml boiling water. The solutions are allowed to cool slowly and steep at room temperature overnight. Pure compounds (gallic acid, apigenin, derivatives of benzoic acid) are prepared as 100 mM stock solutions in water, ethanol or DMSO, depending on solubility in a particular liquid.
# Tinctures are prepared by adding […] of material (fresh weight) to 1 ml ethanol and allowed to steep overnight (or from about 3-30 hours, about 6-24, or about 12-20 or about 18 hours). Insoluble and particulate material is allowed to sediment, and the soluble material is decanted. Tinctures, infusions and stock solutions of pure compounds are tested undiluted, diluted 1:10, 1:100 and 1:1000 to determine EC50 (the dose which causes 50% inhibition of arNOX activity). For tinctures or infusions, aliquots of 60 μl are added to 2.5 ml arNOX assay. For stock solutions (undiluted or diluted), aliquots of 2.5 μl are added to 2.5 ml arNOX assay. For example, addition of an undiluted 100 mM stock solution results in a final concentration of 100 μM in the assay.
# [2] = system: T1, arNOX; assay: as above; format: biochemical, human; conditions: read-out: EC50 (dose which causes 50% inhibition of arNOX activity)
# T1 construct: other: infusion; human saliva
# [3] = system: arNOX; conditions: Morré et al., 2008, BioFactors 32:231-235; cited from earlier work
# [4] = Solubility in water; format: physicochemical
# [5] = system: salivary arNOX; assay: Kinetics of salivary arNOX inhibition after oral administration to a volunteer; format: in vivo, human; conditions: single oral dose at time 0 h, subject
# Procedure: To determine the kinetics of arNOX inhibition, capsules containing 350 to 700 mg of selected seasonings and active ingredients were administered orally to a volunteer and the arNOX activity of collected saliva was analyzed serially. arNOX activity of saliva and sera correlate closely (FIG. 14) such that salivary arNOX is reflective of the inhibition of serum arNOX.
molecule,measurement,setting,value
"Cc1cc(C)cc(C(=O)O)c1 [3,5-dimethylbenzoic acid]",arNOX inhibition (in words),[1],most inhibitory
same,EC50,[2],200 nM
COC1=C(OC)C(=O)C(C/C=C(\C)CC/C=C(\C)CC/C=C(\C)CC/C=C(\C)CC/C=C(\C)CC/C=C(\C)CC/C=C(\C)CCC=C(C)C)=C(C)C1=O [CoQ8],inhibition of arNOX activity of aging cells,[3],inhibited
COC1=C(OC)C(=O)C(C/C=C(\C)CC/C=C(\C)CC/C=C(\C)CC/C=C(\C)CC/C=C(\C)CC/C=C(\C)CC/C=C(\C)CC/C=C(\C)CCC=C(C)C)=C(C)C1=O [CoQ9],inhibition of arNOX activity of aging cells,[3],inhibited
COC1=C(OC)C(=O)C(C/C=C(\C)CC/C=C(\C)CC/C=C(\C)CC/C=C(\C)CC/C=C(\C)CC/C=C(\C)CC/C=C(\C)CC/C=C(\C)CC/C=C(\C)CCC=C(C)C)=C(C)C1=O [CoQ10],inhibition of arNOX activity of aging cells,[3],inhibited
"Oc1ncnc2[nH]ncc12 [allopuranol, reference compound]",arNOX inhibition (in words),[1],inhibited arNOX to varying degrees
"O=c1cc(-c2ccc(O)cc2)oc2cc(O)cc(O)c12 [apigenin aglycone, apigenin]",inhibition of arNOX activity at 10 μM,"[1]; 10 μM, supplied as DMSO solution",inhibited arNOX activity
same,water solubility,[4],insoluble in water
same,water solubility,[4]; listed as apigenin,low water solubility
"O=C(O)c1cc(O)c(O)c(O)c1 [gallic acid, 3,4,5-trihydroxybenzoic acid]",arNOX inhibition (in words),[1],active
same,effective final concentration,[1],0.14 μM and 10 ng/mL
same,maximum inhibition of salivary arNOX,[5],84%
same,time of maximum inhibition of salivary arNOX,[5],8 h
O[C@H]1[C@H](O)[C@@H](O)[C@H](O)[C@@H](O)[C@H]1O [inositol],arNOX inhibition (in words),[1],inhibited arNOX to varying degrees
O=P(O)(O)O[C@H]1[C@H](OP(=O)(O)O)[C@@H](OP(=O)(O)O)[C@H](OP(=O)(O)O)[C@@H](OP(=O)(O)O)[C@H]1OP(=O)(O)O [phytic acid],arNOX inhibition (in words),[1],inhibited arNOX to varying degrees
"OCc1ccccc1O[C@@H]1O[C@H](CO)[C@@H](O)[C@H](O)[C@H]1O [salicin, reference compound]",arNOX inhibition (in words),[1],inhibited arNOX to varying degrees
same,type of arNOX inhibition from kinetic data,[1]; FIG. 1,competitive inhibitor
(±)-catechin,arNOX inhibition (in words),[1],inhibits arNOX; also recorded: potent arNOX inhibitor
same,effective final concentration,[1],100 μM and 300 ng/mL
